The text below walks through data of patent publication US6608057B2, “Compounds useful as reversible inhibitors of cathepsin S” (Boehringer Ingelheim Pharmaceuticals, Inc., priority 1999, dated 2003).

Take `CC(C)C[C@H](NC(=O)N1CCOCC1)C(=O)N[C@@H](CCc1ccccc1)C(=O)c1oc(-c2ccccc2)nc1-c1ccccc1` [Example 5, Morpholine-4-carboxylic acid {1-(S)-[1-(S)-(2,4-diphenyloxazole-5-carbonyl)-3-phenylpropylcarbamoyl]-3-methylbutyl} amide]: the melting point (commonly the temperature, or range, at which the solid turns liquid) was 83 to 85 °C.
